Publication PMC2267459, “Efficient display of active lipase LipB52 with a Pichia pastoris cell surface display system and comparison with the LipB52 displayed on Saccharomyces cerevisiae cell surface” (BMC Biotechnology, 2008)

Target: T1, LipB52 (Pseudomonas fluorescens, UniProt Q6GX93)
T1 construct: lipase fused at its N-terminus to the C-terminus of the FLO flocculation domain (Saccharomyces cerevisiae ATCC 60715) as display anchor
T1 sequence (Q6GX93 1-617): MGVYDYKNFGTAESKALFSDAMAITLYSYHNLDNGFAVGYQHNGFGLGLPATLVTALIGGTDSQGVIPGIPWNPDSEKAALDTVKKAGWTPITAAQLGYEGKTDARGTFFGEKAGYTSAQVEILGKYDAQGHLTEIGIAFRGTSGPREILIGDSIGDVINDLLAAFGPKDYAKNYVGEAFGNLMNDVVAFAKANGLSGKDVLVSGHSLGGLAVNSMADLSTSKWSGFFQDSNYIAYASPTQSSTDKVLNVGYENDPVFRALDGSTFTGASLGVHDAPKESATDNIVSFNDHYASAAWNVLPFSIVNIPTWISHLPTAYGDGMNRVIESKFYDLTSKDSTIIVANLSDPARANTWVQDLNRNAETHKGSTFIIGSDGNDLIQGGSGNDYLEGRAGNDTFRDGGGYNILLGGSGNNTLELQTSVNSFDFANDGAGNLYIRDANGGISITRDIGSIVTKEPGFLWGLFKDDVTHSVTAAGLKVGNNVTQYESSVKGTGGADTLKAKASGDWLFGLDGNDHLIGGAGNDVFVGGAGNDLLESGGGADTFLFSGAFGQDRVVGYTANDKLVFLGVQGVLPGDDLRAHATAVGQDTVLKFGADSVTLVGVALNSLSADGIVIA
Experiment: p-nitrophenol release by displayed whole cells
Type: cell-based
Conditions: yeast surface-displayed (whole-cell) enzyme

Structure (SMILES)	p-nitrophenol release by displayed whole cells (conditions not stated for this substrate)	p-nitrophenol release by displayed whole cells (pH 8.0, 40 °C)
CCCCCCCCCCCC(=O)Oc1ccc([N+](=O)[O-])cc1 [C12, p-nitrophenol ester (C12)]	exhibited evident hydrolysis activity towards the p-nitrophenol ester	
CCCCCCCCCC(=O)Oc1ccc([N+](=O)[O-])cc1 [C10, p-nitrophenol-caprate]		the optimum substrate was p-nitrophenol-caprate (C10)
